Peptide text beside a SMILES is read from it.
Tests used:
rodents = assay: Forced Swimming Test; format: in vivo, rats; details: intracerebroventricular, 100 nmol/10 µl, n=12
From the text: It has been proven as a result of the tests performed on animals that Glycyl-glutamine is therapeutic on depression and anxiety disorders. These aforementioned studies have been performed by means of "the Forced Swimming Test" method, which is the most applied animal model, used in antidepressant treatment surveys. The forced swimming test had been developed by Porsolt et al., (1978) and it is the most applied animal model in depression surveys especially the antidepressant treatment surveys. […] After the same animal is placed in the same tank twenty-four hours after the first time, it is observed that the time passes until inactivity reduces. Inactivity is expressed as losing behaviors of trying to escape in other words "behavioral helplessness". The forced swimming test is a similar response to learned helplessness. The efforts spent for an escape comes to an end for the animal, which understands it is exposed to a stress it will not be able to escape. Thus, it can be understood by that test model whether the antidepressant medications, which are administered before the second administration, show antidepressant effects or not. In practice, the post-treatment behaviors of the animal change for reducing behavioral helplessness. The time passed until inactivity is extended by means of acute or short-term antidepressant treatments and total time of inactivity is decreased. […] Because, it is an easy to apply practice, this model is used extensively (Cryan et al., 2002).
In Figure 1, the effect of intracerebroventricular Gly-Gln injection on the first term of inactivity. When, Gly-Gln has been administered centrally, it has extended the time passed until first inactivity compared to the control animals. While, the time passed until first inactivity of the rodents which have been centrally administered saline (10 µl) has been 14,9 ± 2,8 seconds (n=14), the time passed until first inactivity of the rodent which have been applied Gly-Gln (100 nmol/10 µl) by that same way has been increased to 28,1 ± 6,1 seconds (n=12), (p<0,05).
In Figure 2, the effect of intracerebroventricular Gly-Gln injection on the total term of inactivity. When, Gly-Gln has been administered centrally, it has reduced the total time time of inactivity compared to the control animals. While, the total inactivity time of the rodents which have been centrally administered saline (10 µl) has been 229.4 ± 8.9 seconds (n=14), the time passed until first inactivity of the rodent which have been applied Gly-Gln (100 nmol/10 µl) by the same way has been increased to 172.5 ± 12.8 seconds (n=12), (p<0,001).
In Figure 3, the effect of intracerebroventricular Gly-Gln injection on the escalation and swimming times. […]

Storage stability = format: physicochemical
Protocol: After, it is diluted by saline; it can be stored in a refrigerator at +4°C between 24-48 hours. It can be stored in room temperature for 10-12 hours.

GABA levels in the brain = GABA levels in the brain after administration (unpublished data); format: in vivo; details: Gly-Gln administration; unpublished data from applicant's laboratory
From the text: This innovation is related with the use of glycyl-glutamine in the treatment and/or prophylaxis of depression disorder and/or anxiety, which meets all above-mentioned requirements, eliminates all disadvantages and provides some advantages. The purpose of the current invention is to use Glycyl-Glutamine (Gly-Gln) in the treatment and/or prophylaxis of depression and/or anxiety via its effects in the brain other than its metabolic products' (glycine and glutamine) separate effects. […] Glutamine exerts antidepressant effects by increasing gamma-aminobutyric acid (GABA) in the brain however Gly-Gln generates antidepressant effects by increasing serotonin levels in the brain.

[1] = system: serotonin output at the nucleus accumbency section of the brain; assay: Brain micro-dialysis, serotonin output; format: in vivo, rats; details: single intracerebroventricular 100 nmol dose, 2 hours of monitoring, versus saline; p<0.001
Protocol: The source of the antidepressant effects of Gly-Gln, which is mentioned in the figure descriptions above, have been analyzed and shown in Figures 4 and 5. In Figures 4 and 5; the effect of Gly-Gln on the serotonin output at the nucleus accumbency section of the brain upon intracerebroventricular Gly-Gln injection can be seen. […] An increase in serotonin outputs can be observed in all time intervals throughout 2 hours of monitoring period following the Gly-Gln injection; however, no serotonin output could be observed from the rodents in the control group who had been administered saline injections by the same way. Serotonin, which is structurally a monoamine neurotransmitter, is a hormone, which makes people feel happy, energetic and lively. When, the subject matter hormone serotonin is deficient in people, they feel depressive, tired and boring. […] Furthermore, the word "Saline" indicated in Figure 4 and 5 means salty water. It is used for comparing with the tested medication by administering on the control group.

## NCC(=O)N[C@@H](CCC(N)=O)C(=O)O [Gly-Gln, glycyl-glutamine] (H-Gly-Gln-OH)
rodents; saline control 14,9 ± 2,8 seconds (n=14), p<0,05
  time passed until first inactivity: 28,1 ± 6,1 seconds
rodents; saline control 26,7 ± 2,9 seconds (n=14), p>0.05
  swimming time: 36,8 ± 4,3 seconds
rodents; saline control 43,9 ± 7,0 seconds (n=14)
  escalation time: 90,8 ± 11,4 seconds
rodents; saline control 229.4 ± 8.9 seconds (n=14), p<0,001
  total inactivity time: 172.5 ± 12.8 s
Storage stability; refrigerator at +4°C
  storage time, diluted by saline: 24 to 48 h
Storage stability; refrigerator at -20°C
  storage time, non-diluted form: very long period of time
Storage stability; room temperature
  storage time, diluted by saline: 10 to 12 h
GABA levels in the brain
  GABA levels in the brain: decrease
[1]
  serotonin output at the nucleus accumbency section of the brain: extremely increased

Source: patent EP2943187B1, “USE OF GLYCYL GLUTAMINE AGAINST DEPRESSION” (Uludag Universitesi Teknoloji Transfer Ofisi Ticaret ve …, priority 2013, dated 2014)
